# Patent US11718613B2, “N-(phenylsulfonyl)benzamides and related compounds as Bcl-2 inhibitors” (THE REGENTS OF THE UNIVERSITY OF MICHIGAN, priority 2016, dated 2023)
# Like-named read-outs stand apart in the source and are kept apart here.
# Columns and labels:
# Mcl-1 = Mcl-1 (Homo sapiens (Human), UniProt Q07820); experiment: Fluorescence polarization competitive binding assay, Mcl-1; conditions: FP competition with Flu-BID probe; read-out: Inhibitory activity IC50 Mcl-1
# Method: (§1) Fluorescence polarization values were measured using the Infinite M-1000 plate reader (Tecan U.S., Research Triangle Park, N.C.) in Microfluor 1 96-well, black, round-bottom plates (Thermo Scientific). […] Plates were mixed and incubated at room temperature for 1 hour with gentle shaking to assure equilibrium. […] Equilibrium dissociation constants (Kd) were then calculated by fitting the sigmoidal dose-dependent FP increases as a function of protein concentrations using Graphpad Prism 5.0 software (Graphpad Software, San Diego, Calif.).
# (§2) Mixtures of 5 μl of the tested inhibitors in DMSO and 120 μl of pre-incubated protein/probe complexes in the assay buffer were added into assay plates and incubated at room temperature for 2 hours with gentle shaking. […] FP values were measured as described above. IC50 values were determined by nonlinear regression fitting of the competition curves.
# RS4;11 cells = experiment: RS4;11 cell viability (CCK-8) assay; assay type: cell-based, human; conditions: 4 days, read-out: RS4;11 IC50 (Bcl-2 dependent)
# Method: RS4;11 cells were obtained from American Type Culture Collection (ATCC). They were used within three months of thawing fresh vials. Cells were maintained in the recommended culture medium with 10% FBS at 37° C. and an atmosphere of 5% CO2.
# The effect of representative Compounds of the Disclosure on cell viability was determined using Cell Counting Kit-8 (CCK-8) assay (Dojindo, Rockville, Md.) according to the manufacturer's instructions. 200 μL of a RS4;11 cell suspension (10000 cells/well) in culture medium were seeded into 96-well plates and cultured overnight. Each tested compound was serially diluted in culture medium, and 20 μL of the compound dilution was added to the corresponding well of the cell plate. After the addition of the tested compound, the cells were incubated at 37° C. in an atmosphere of 5% CO2 for 4 days. At the end of 4 days, 10 μL of CCK-8 solution was added to each well of the plate and incubated for 1-4 hours. The plates were read at 450 nm on the microplate spectrophotometer (Epoch2, BioTek). The readings were normalized to the vehicle cells, and the IC50 was calculated by nonlinear regression analysis using GraphPad Prism 5 software.
# [1] = tested on: RS4;11 leukemia xenograft; experiment: RS4;11 leukemia xenograft model; assay type: in vivo; conditions: oral gavage, nude mice
# Method: The antitumor activity of Cpd. No. 6 (compound 6) was also studied in the RS4;11 leukemia xenograft model. Human RS4;11 tumor cells were injected into nude mice and treatment started on day 11 when the tumor size reached approximately 100 mm^3. Cpd. No. 6 was administered via oral gavage at indicated doses and schedules. Cpd.
# Bcl-xL = Bcl-xL (Homo sapiens (Human), UniProt Q07817); experiment: Fluorescence polarization competitive binding assay, Bcl-xL; conditions: FP competition with Flu-BAK probe; read-out: Inhibitory activity IC50 Bcl-xL
# Sequence of Bcl-xL (Q07817 whole entry): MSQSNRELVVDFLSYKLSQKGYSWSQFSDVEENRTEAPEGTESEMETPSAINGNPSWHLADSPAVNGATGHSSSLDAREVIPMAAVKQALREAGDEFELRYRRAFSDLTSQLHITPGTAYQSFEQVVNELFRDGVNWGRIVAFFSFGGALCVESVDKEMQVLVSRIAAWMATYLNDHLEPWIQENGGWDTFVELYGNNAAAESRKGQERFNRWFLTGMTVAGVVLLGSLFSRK
# Method: as §1, §2
# Bcl-2 = Bcl-2 (Homo sapiens (Human), UniProt P10415); experiment: Fluorescence polarization competitive binding assay, Bcl-2; conditions: FP competition with Flu-BIM probe; read-out: Inhibitory activity IC50 Bcl-2
# Sequence of Bcl-2 (P10415 whole entry): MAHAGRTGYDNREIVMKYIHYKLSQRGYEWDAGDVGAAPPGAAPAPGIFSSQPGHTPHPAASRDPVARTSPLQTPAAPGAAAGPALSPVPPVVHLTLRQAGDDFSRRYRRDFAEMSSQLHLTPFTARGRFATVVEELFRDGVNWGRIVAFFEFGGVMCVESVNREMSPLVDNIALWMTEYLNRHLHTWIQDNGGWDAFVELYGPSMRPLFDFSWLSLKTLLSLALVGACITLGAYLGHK
# Method: as §1, §2
# Sequence of Mcl-1 (Q07820 whole entry): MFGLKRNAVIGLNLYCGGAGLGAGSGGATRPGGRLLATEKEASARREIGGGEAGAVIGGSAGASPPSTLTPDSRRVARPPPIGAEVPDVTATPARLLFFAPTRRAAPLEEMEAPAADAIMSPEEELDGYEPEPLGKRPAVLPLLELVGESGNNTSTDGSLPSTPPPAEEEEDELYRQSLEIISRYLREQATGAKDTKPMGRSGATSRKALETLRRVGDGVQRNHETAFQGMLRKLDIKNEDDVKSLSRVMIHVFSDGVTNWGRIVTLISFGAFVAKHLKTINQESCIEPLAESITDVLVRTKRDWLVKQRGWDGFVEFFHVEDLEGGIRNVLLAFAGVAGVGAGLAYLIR
compound,measurement,setting,value
"(R)-N-((4-(((1,4-dioxan-2-yl)methyl)amino)-3- nitrophenyl)sulfonyl)-2-((1H-pyrrolo[2,3- b]pyridin-5-yl)oxy)-4-(4-((6-(4-chlorophenyl)-2- oxaspiro[3.5]non-6-en-7-yl)methyl)piperazin-1- yl)benzamide [compound 8]",IC50,Mcl-1,> 5000 nM
same,IC50,RS4;11 cells,3.7 nM
"2-((1H-pyrrolo[2,3-b]pyridin-5-yl)oxy)-4-(1-((6- (4-chlorophenyl)-2-oxaspiro[3.5]non-6-en-7- yl)methyl)-1,2,3,6-tetrahydropyridin-4-yl)-N-((3- nitro-4-(((tetrahydro-2H-pyran-4- yl)methyl)amino)phenyl)sulfonyl)benzamide [compound 9]",IC50,RS4;11 cells,28 nM
"O=C(NS(=O)(=O)c1ccc(NC[C@H]2COCCO2)c([N+](=O)[O-])c1)c1ccc(N2CCN(CC3=C(c4ccc(Cl)cc4)CC4(CCC4)CC3)CC2)cc1Oc1cnc2[nH]ccc2c1 [Cpd. No. 6, (S)-N-((4-(((1,4-dioxan-2-yl)methyl)amino)-3-nitrophenyl)sulfonyl)-2-((1H-pyrrolo[2,3-b]pyridin-5-yl)oxy)-4-(4-((6-(4-chlorophenyl)spiro[3.5]non-6-en-7-yl)methyl)piperazin-1-yl)benzamide]",antitumor activity (tumor growth),[1]; FIG. 3,inhibits tumor growth
same,mouse weight,[1]; FIG. 4,does not cause weight loss in mice
"O=C(NS(=O)(=O)C1=CC2C(C=NN2CC2CCOCC2)C([N+](=O)[O-])=C1)c1ccc(N2CCN(CC3=C(c4ccc(Cl)cc4)CC4(CCC4)CC3)CC2)cc1Oc1cnc2[nH]ccc2c1 (stereo not drawn) [compound 62, 2-((1H-pyrrolo[2,3-b]pyridin-5-yl)oxy)-4-(4-((6-(4-chlorophenyl)spiro[3.5]non-6-en-7-yl)methyl)piperazin-1-yl)-N-((4-nitro-1-((tetrahydro-2H-pyran-4-yl)methyl)-3a,7a-dihydro-1H-indazol-6-yl)sulfonyl)benzamide]",IC50,Bcl-xL,4 nM
same,IC50,Bcl-2,1.6 nM
same,IC50,"RS4;11 cells; Homo sapiens, RS4-11, 96 h",46 nM
"(R)-N-((4-(((1,4-dioxan-2-yl)methyl)amino)-3- nitrophenyl)sulfonyl)-2-((1H-pyrrolo[2,3- b]pyridin-5-yl)oxy)-4-(1-((6-(4-chlorophenyl)-2- oxaspiro[3.5]non-6-en-7-yl)methyl)-1,2,3,6- tetrahydropyridin-4-yl)benzamide [Cpd. No. 5]",IC50,RS4;11 cells,22 nM
